Assay: KPCB/ K352 ratio of the compound

SMILES	Ratio
Oc1c(Cl)cc(Cl)cc1-c1ccccc1	1
Oc1c(Cl)cc(-c2cc(Cl)c(O)c(Cl)c2)cc1Cl	45.5
Oc1c(Cl)cc(-c2ccccc2)cc1Cl	45
Clc1cc(-c2cc(Cl)c(Cl)c(Cl)c2)cc(Cl)c1Cl	27.7
Oc1c(Cl)cc(-c2ccc(Cl)cc2)cc1Cl	27.5
Oc1ccc(-c2cc(Cl)c(Cl)c(Cl)c2Cl)cc1	24.3
Oc1ccc(-c2c(Cl)cc(Cl)cc2Cl)cc1	2.91
Oc1c(I)cc(I)cc1I	33.8
O=C1C(Cl)=CC(=C2C=C(Cl)C(=O)C(Cl)=C2)C=C1Cl	2.92

Source: ChEMBL document CHEMBL1123450, “A theoretical study of the binding of polychlorinated biphenyls (PCBs), dibenzodioxins, and dibenzofuran to human plasma prealbumin” (J Med Chem, 1986)
